One experiment concerns the target JNK3 (Homo sapiens, UniProt P53779). The experiment can be described thus: Biochemical JNK3 kinase inhibition (Z'-lyte format). The note with it: Table 2.
Experiment [1] relates to c-Jun phosphorylation. The experiment can be described thus: High throughput microscopy of c-Jun phosphorylation in A375 cells. In kind it is cell-based. The note with it: Homo sapiens, A-375. The method, then: Cells were fixed in 2% paraformaldehyde for 10 min at room temperature and washed with PBS-T (Phosphate Buffered Saline, 0.1% Tween 20). Cells were permeabilized in methanol for 10 min at room temperature, washed with PBS-T, and blocked in Odyssey Blocking Buffer (LI-COR Biosciences) for 1 hour at room temperature. Cells were incubated overnight at 4° C. with antibody specific for Erk1/2(pT202/pY204), Akt(pS473), c-Jun(pS73), pP38(T180/Y182) and pSTAT3(Y705) (Cell Signaling Technology), pRSK1(S380) and pMSK1(S376) (Epitomics), and NF-κB (Santa Cruz Biotechnology) diluted 1:400 in Odyssey Blocking Buffer. […] Cells were washed twice with PBS and imaged in an imageWoRx high-throughput microscope (Applied Precision). Data were plotted using DataPflex.
(§1) In parallel with biochemical evaluation, the ability of the compounds to inhibit JNK activity in cells was investigated using two independent assays formats. This is a critical issue because there are several reported JNK inhibitors with nanomolar biochemical potency that translate into micromolar cellular inhibitors. The most well characterized direct phosphorylation substrate of JNK is the transcription factor c-Jun.

Experiment [2] deals with c-Jun phosphorylation. The experiment in a line: LanthaScreen TR-FRET cell assay for c-Jun phosphorylation in HeLa cells. Format: cell-based. The note with it: Homo sapiens; Hela cells, TNF-α stimulation; read-out: p-c-Jun EC50 (nM) Hela. The method, then: Phosphorylation was determined by measuring the time resolved FRET (TR-FRET) between a terbium labeled phospho-c-Jun specific antibody and GFP. The cells were plated in white tissue culture treated 384 well plates at a density of 10,000 cell per well in 32 μL assay medium (Opti-MEM®, supplemented with 0.5% charcoal/dextran-treated FBS, 100 U/ml penicillin and 100 μg/ml streptomycin, 0.1 mM nonessential amino acids, 1 mM sodium pyruvate, 25 mM Hepes, pH 7.3, and lacking phenol red). After overnight incubation, cells were pretreated for 90 minutes with compound (at indicated concentration) diluted in 4 μL assay buffer followed by 30 min of stimulation with 5 ng/ml of TNF-α in 4 μL assay buffer (final assay volume was 40 μl). The medium was then removed by aspiration, and the cells were lysed by adding 20 μl of lysis buffer (20 mM Tris-HCl, pH 7.6, 5 mM EDTA, 1% Nonidet P-40 substitute, 5 mM NaF, 150 mM NaCl, and 1:100 protease and phosphatase inhibitor mix, SIGMA P8340 and P2850, respectively). The lysis buffer included 2 nM of the terbium-labeled anti-c-Jun (pSer73) detection antibodies (Life Technologies). After allowing the assay to equilibrate for 60 minutes at room temperature, TR-FRET emission ratios were determined on a BMG Pherastar fluorescence plate reader (BMG Labtech, Cary, N.C.) using the following parameters: excitation at 340 nm; emission at 520 nm and 490 nm; 100 μs lag time; 200 μs integration time; and emission ratio=Em520/Em490. All data were analyzed and plotted using Graphpad Prism 4.
as §1

The mark [3] stands for this setting: A375 cells, anisomycin stimulation, read-out: p-c-Jun EC50 (nM) A375.
[4] abbreviates: Table 5, A375, read-out: E50/A375.

JNK3, sequence (P53779 whole entry): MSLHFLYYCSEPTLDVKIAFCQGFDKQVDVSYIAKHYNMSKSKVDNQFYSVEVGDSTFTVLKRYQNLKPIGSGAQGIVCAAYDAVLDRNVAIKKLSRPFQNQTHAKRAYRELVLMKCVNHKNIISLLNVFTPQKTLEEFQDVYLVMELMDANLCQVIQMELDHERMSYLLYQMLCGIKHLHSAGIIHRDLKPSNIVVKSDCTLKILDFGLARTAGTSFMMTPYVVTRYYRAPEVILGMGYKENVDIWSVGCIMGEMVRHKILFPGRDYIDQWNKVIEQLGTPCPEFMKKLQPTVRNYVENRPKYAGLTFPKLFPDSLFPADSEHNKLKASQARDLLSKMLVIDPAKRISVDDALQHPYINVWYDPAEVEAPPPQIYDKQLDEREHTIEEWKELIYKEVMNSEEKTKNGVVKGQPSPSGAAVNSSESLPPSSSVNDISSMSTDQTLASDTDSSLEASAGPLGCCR

The term IC50 denotes the midpoint of a concentration-inhibition curve. The low end stands for higher potency, the high end for lower potency. In turn, `Cc1ccc(NC(=O)/C=C/CN(C)C)cc1C(=O)Nc1ccc(Nc2nccc(-c3cccnc3)n2)cc1` [JNK-IN-9] gave an IC50 against JNK3 of 0.5 nM. Further, the EC50 in the experiment on c-Jun phosphorylation [1] (setting [3]) was determined as 117 nM; with c-Jun phosphorylation [2] it was 104 nM.

The compound `Cc1ccc(C(=O)Nc2ccc(Nc3nccc(-c4cccnc4)n3)cc2)cc1NC(=O)/C=C/CN(C)C` [JNK-IN-10] gave an IC50 on JNK3 of 0.5 nM. Further, the EC50 in the experiment on c-Jun phosphorylation [1] (setting [3]) stood at 141 nM; in the experiment on c-Jun phosphorylation [2] it was 173 nM.

`Oc1c2ccccc2c2c3c(cccc13)N=N2` [SP-600125, reference compound]: the results for the EC50 with c-Jun phosphorylation [1] (setting [3]) and with c-Jun phosphorylation [2] were 1980 nM and 7450 nM, respectively.

On to `C=CC(=O)Nc1ccc(C(=O)Nc2cccc(Nc3nccc(-c4cccnc4)n3)c2)cc1` [ZG-9], for which the EC50 with c-Jun phosphorylation [1] (setting [4]) worked out at 5460 nM.

In the case of `CN(C)C/C=C/C(=O)Nc1ccc(C(=O)Nc2cccc(Nc3nccc(-c4cccnc4)n3)c2)cc1` [ZG-10], the EC50 in the experiment with c-Jun phosphorylation [1] (setting [4]) turned out to be 2400 nM.

Source of the values: patent US10144730B2, “Inhibitors of c-Jun-N-terminal kinase (JNK)” (Dana-Farber Cancer Institute, Inc., priority 2011, dated 2018).
